{"source": "ChEMBL document CHEMBL1201862", "about": "“PubChem BioAssay data set” (2004)", "key": {"[1]": {"assay": "HepG2 cell cytotoxicity, dose response, cytotoxicity control for Shn3 inhibitor project, CellTiter-Glo, cherry-picked (AID 624134)", "assay_type": "functional, cell-based"}, "[2]": {"target": "T1, High affinity choline transporter 1 (Homo sapiens, UniProt Q9GZV3)", "T1 sequence (Q9GZV3 whole entry)": "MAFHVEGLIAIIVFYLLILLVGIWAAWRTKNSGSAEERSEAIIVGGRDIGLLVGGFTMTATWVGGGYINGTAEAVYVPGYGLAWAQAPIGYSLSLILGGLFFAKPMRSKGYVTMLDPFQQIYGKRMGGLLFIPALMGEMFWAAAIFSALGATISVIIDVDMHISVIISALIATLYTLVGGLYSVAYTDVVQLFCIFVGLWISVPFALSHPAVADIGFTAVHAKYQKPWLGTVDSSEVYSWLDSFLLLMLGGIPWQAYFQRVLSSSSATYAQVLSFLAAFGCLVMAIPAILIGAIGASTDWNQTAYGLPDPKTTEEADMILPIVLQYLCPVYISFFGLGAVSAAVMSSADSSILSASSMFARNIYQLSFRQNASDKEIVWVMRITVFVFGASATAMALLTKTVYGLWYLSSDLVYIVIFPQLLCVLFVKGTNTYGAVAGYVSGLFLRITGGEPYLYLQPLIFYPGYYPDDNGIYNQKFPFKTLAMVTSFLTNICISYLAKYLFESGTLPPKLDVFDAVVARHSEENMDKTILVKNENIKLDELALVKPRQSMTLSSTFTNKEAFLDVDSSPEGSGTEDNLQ", "assay": "CHT activators, dose response, cell-based, 10-point CRC, membrane potential dye (AID 602376)", "assay_type": "functional"}, "[3]": {"assay": "inhibitors of intracellular T. cruzi replication, confirmation, NIH3T3 host cells, beta-gal luminescence (AID 2044);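 also: luminescent beta-galactosidase reporter signal from transgenic T. cruzi replicating inside host cells; inhibitors lower the luminescence signal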", "assay_type": "functional, cell-based"}, "[4]": {"assay": "microbe, parasite or virus in culture", "assay_type": "functional", "conditions": "Mycobacterium tuberculosis"}, "[5]": {"assay": "cytotoxicity toward NIH3T3 fibroblasts, dose response, counter-screen, cell-based, ATP luminescence, mouse fibroblasts (AID 2010);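 also: cells exposed to compound for about 90 hours before reading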", "assay_type": "functional"}, "[6]": {"assay": "THP-1 cell cytotoxicity, dose response, cytotoxicity control for non-replicating M. tuberculosis project (AID 489025)", "assay_type": "functional"}, "cells": {"assay": "cells", "assay_type": "functional"}, "[7]": {"assay": "A Cell Based Secondary Assay to Explore Cytotoxicity in THP-1 Cells of Compounds that Modulate Mycobacterium tuberculosis in Media Containing Glycerol versus Media without Glycerol (2).", "assay_type": "functional"}, "[8]": {"assay": "Vero cell cytotoxicity, cytotoxicity control for M. tuberculosis inhibitor project, purified and synthesized samples, set 3 (AID 504684)", "assay_type": "functional", "conditions": "[…]"}, "[9]": {"assay": "A Cell Based Secondary Assay to Explore Cytotoxicity in HepG2 Cells of Compounds that Modulate Mycobacterium tuberculosis in Media Containing Glycerol versus Media without Glycerol (2).", "assay_type": "functional"}, "HEK293 [10]": {"test_system": "HEK293", "assay": "cytotoxicity in HEK293T NF-kB-Luc cells, SAR follow-up, cytotoxicity control for NF-kB activator project, cell-based, resazurin fluorescence (AID 493251)", "assay_type": "functional", "conditions": "Homo sapiens"}, "Jurkat": {"test_system": "Jurkat", "assay": "SAR Analysis of small molecule inhibitors of both B-cell and T-cell specific antigen receptor-induced NF-kB activation in a Jurkat cell line using a luminescence assay. [Related pubchem assays (depositor defined):AID435003, AID435022, AID465, AID489029]", "assay_type": "functional, cell-based", "conditions": "Homo sapiens"}, "HEK293 [11]": {"test_system": "HEK293", "assay": "SAR Analysis of small molecule inhibitors of both B-cell and T-cell specific antigen receptor-induced NF-kB activation in a HEK-293T cell line using a luminescence assay. [Related pubchem assays (depositor defined):AID435003, AID435022, AID465, AID489019, AID489029]", "assay_type": "functional, cell-based", "conditions": "Homo sapiens"}, "CHO-K1": {"test_system": "CHO-K1", "assay": "(§1) Counterscreen for antagonists of the orexin 1 receptor (OX1R; HCRTR1): Homogeneous time resolved fluorescence (HTRF)-based cell-based dose response assay to identify antagonists of the parental CHO-K1 cell line. [Related pubchem assays (depositor defined):AID434989, AID435008, AID463079, AID485270, AID492963, AID492964, AID492965, AID493232, AID504699, AID504701]", "assay_type": "functional", "conditions": "Cricetulus griseus"}, "[12]": {"assay": "as §1, with “Fluorescence-based” for “Homogeneous time resolved fluorescence (HTRF)-based”, “cell-based high throughput” for “cell-based”, “CHO” for “CHO-K1”", "assay_type": "functional"}, "[13]": {"target": "T2, Orexin/Hypocretin receptor type 1 (Homo sapiens, UniProt O43613)", "T2 sequence (O43613 whole entry)": "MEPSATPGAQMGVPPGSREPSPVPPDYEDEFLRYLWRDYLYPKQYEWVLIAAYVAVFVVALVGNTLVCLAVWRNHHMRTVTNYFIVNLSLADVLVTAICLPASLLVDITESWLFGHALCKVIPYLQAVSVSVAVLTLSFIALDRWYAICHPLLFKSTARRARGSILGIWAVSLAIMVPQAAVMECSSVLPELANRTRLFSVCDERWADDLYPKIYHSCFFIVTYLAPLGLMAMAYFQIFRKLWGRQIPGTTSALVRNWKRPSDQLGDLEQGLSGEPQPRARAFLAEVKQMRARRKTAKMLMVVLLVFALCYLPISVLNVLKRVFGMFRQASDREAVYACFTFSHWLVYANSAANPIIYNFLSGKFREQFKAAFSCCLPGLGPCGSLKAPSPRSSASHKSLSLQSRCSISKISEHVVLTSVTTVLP", "assay": "Homogeneous Time Resolved Fluorescence (HTRF)-based cell-based high throughput dose response assay for antagonists of the orexin 1 receptor (OX1R; HCRTR1). [Related pubchem assays (depositor defined):AID434989, AID435008, AID463079, AID485270, AID492963, AID492964, AID492965, AID493232, AID504717, AID504718]", "assay_type": "functional"}, "[14]": {"target": "T2, Orexin/Hypocretin receptor type 1", "assay": "Fluorescence-based cell-based high throughput dose response assay for antagonists of the orexin 1 receptor (OX1R; HCRTR1). [Related pubchem assays (depositor defined):AID434989, AID435008, AID463079, AID485270, AID492963, AID492964, AID492965, AID493232, AID504717, AID504718]", "assay_type": "functional"}, "Orexin receptor type 2 [15]": {"target": "T3, Orexin receptor type 2 (Homo sapiens, UniProt O43614)", "T3 sequence (O43614 whole entry)": "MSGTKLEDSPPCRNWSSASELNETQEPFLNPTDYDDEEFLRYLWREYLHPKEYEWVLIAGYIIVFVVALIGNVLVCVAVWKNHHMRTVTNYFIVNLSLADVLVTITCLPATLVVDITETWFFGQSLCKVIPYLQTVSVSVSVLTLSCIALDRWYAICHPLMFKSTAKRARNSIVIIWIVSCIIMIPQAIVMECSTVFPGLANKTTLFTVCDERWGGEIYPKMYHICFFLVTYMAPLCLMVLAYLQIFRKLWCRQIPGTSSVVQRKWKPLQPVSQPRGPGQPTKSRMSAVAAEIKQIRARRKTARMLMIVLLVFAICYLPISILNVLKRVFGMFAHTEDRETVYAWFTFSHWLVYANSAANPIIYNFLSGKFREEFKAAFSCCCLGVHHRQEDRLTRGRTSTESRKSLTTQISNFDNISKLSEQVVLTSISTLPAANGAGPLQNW", "assay": "Counterscreen assay for antagonists of the orexin 1 receptor (OX1R; HCRTR1): Fluorescence-based cell-based dose response assay for antagonists of the orexin 2 receptor (OX2R; HCRTR2), run by assay provider.", "assay_type": "functional"}, "Orexin receptor type 2 [16]": {"target": "T3, Orexin receptor type 2", "assay": "Counterscreen assay for antagonists of the orexin 1 receptor (OX1R; HCRTR1): Homogeneous Time Resolved Fluorescence (HTRF)-based cell-based dose response assay for antagonists of the orexin 2 receptor (OX2R; HCRTR2), run by assay provider.", "assay_type": "functional"}, "[17]": {"target": "Ribosomal protein S6 kinase alpha-3 (Homo sapiens, UniProt P51812)", "sequence (P51812 whole entry)": "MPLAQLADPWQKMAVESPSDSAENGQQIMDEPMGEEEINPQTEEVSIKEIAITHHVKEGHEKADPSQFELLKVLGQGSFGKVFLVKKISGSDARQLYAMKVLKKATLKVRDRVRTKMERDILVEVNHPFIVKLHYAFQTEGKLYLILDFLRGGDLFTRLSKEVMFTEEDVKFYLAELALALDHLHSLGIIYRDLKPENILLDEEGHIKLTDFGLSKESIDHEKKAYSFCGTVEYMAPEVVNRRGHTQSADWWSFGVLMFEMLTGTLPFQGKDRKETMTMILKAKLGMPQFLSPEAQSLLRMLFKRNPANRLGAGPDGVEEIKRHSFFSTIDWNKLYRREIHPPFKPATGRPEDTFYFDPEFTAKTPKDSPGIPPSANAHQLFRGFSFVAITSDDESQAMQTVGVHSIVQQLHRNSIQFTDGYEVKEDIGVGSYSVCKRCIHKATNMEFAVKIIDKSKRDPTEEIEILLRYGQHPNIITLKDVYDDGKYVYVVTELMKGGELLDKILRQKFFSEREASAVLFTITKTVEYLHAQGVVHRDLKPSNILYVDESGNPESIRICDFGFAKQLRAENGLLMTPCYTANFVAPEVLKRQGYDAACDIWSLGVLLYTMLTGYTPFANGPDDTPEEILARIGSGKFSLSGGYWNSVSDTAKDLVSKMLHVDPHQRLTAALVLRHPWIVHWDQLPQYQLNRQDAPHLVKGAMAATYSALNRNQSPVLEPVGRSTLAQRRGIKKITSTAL", "assay_type": "functional"}, "[18]": {"target": "5'-AMP-activated protein kinase catalytic subunit alpha-1 (Homo sapiens, UniProt Q13131)", "assay_type": "functional"}, "[19]": {"target": "Casein kinase II subunit alpha (Homo sapiens, UniProt P68400)", "sequence (P68400 whole entry)": "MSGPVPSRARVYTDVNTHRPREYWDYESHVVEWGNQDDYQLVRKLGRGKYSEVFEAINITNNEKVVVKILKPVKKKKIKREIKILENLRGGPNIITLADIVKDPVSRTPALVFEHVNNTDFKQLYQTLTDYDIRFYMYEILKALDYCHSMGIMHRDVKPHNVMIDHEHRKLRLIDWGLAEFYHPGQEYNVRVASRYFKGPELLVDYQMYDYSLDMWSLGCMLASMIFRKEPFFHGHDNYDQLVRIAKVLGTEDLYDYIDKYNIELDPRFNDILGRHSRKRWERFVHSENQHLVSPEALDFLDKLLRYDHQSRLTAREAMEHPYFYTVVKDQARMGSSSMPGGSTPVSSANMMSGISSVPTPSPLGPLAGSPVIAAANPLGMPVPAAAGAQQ", "assay_type": "functional"}, "[20]": {"target": "Calcium/calmodulin-dependent protein kinase type 1 (Homo sapiens, UniProt Q14012)", "sequence (Q14012 whole entry)": "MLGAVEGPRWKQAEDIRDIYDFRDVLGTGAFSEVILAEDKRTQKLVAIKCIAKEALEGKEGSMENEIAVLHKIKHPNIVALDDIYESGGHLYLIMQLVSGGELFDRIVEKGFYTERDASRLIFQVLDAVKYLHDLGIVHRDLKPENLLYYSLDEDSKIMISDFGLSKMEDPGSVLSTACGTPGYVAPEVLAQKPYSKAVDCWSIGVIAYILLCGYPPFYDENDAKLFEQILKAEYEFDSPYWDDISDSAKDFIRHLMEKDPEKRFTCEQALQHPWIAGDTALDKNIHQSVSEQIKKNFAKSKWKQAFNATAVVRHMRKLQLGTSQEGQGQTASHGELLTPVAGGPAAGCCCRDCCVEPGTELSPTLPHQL", "assay_type": "functional"}, "[21]": {"target": "cAMP-dependent protein kinase catalytic subunit alpha (Homo sapiens, UniProt P17612)", "assay_type": "functional"}, "[22]": {"target": "Serine/threonine-protein kinase MRCK alpha (Homo sapiens, UniProt Q5VT25)", "sequence (Q5VT25 whole entry)": "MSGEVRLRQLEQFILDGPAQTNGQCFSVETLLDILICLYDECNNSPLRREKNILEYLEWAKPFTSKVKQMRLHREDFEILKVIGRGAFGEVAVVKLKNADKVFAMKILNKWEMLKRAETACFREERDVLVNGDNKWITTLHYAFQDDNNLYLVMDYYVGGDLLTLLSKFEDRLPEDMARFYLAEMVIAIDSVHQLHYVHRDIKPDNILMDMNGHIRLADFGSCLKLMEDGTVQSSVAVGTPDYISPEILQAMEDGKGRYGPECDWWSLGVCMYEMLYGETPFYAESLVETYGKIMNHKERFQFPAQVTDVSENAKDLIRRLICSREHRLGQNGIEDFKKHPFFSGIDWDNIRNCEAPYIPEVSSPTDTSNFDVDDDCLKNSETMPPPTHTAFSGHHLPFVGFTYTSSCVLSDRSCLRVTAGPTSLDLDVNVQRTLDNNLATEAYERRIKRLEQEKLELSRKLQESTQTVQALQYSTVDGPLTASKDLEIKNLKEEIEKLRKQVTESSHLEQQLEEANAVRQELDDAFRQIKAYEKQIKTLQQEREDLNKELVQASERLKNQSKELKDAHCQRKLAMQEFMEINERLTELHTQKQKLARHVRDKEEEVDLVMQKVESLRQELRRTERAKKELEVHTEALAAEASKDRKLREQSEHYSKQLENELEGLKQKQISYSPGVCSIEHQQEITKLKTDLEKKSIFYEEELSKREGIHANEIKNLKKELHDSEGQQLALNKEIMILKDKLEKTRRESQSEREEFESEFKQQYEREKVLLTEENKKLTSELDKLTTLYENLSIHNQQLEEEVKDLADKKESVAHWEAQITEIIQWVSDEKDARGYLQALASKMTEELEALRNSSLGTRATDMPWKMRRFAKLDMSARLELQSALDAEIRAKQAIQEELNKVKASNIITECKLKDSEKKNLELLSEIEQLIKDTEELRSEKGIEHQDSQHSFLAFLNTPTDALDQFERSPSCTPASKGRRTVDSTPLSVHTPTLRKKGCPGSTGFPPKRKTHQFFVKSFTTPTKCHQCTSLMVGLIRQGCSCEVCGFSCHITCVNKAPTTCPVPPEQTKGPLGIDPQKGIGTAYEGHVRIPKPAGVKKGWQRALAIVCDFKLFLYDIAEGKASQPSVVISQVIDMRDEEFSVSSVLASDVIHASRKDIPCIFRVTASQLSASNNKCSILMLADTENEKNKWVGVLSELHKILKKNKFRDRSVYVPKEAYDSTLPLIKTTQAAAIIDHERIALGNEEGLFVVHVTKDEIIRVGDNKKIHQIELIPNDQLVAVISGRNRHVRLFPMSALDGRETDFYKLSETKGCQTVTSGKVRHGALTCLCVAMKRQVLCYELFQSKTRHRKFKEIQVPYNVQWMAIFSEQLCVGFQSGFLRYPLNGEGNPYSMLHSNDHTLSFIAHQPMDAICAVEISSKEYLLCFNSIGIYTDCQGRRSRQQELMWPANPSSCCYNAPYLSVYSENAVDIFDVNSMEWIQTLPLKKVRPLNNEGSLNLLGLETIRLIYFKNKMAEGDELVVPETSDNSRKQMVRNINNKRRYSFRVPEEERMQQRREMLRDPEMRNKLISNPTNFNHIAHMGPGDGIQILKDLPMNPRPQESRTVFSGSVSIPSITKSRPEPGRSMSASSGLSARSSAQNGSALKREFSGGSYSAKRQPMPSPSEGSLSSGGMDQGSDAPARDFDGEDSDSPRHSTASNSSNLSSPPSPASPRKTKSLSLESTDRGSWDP", "assay_type": "functional"}, "[23]": {"target": "Inhibitor of nuclear factor kappa-B kinase subunit beta (Homo sapiens, UniProt O14920)", "sequence (O14920 whole entry)": "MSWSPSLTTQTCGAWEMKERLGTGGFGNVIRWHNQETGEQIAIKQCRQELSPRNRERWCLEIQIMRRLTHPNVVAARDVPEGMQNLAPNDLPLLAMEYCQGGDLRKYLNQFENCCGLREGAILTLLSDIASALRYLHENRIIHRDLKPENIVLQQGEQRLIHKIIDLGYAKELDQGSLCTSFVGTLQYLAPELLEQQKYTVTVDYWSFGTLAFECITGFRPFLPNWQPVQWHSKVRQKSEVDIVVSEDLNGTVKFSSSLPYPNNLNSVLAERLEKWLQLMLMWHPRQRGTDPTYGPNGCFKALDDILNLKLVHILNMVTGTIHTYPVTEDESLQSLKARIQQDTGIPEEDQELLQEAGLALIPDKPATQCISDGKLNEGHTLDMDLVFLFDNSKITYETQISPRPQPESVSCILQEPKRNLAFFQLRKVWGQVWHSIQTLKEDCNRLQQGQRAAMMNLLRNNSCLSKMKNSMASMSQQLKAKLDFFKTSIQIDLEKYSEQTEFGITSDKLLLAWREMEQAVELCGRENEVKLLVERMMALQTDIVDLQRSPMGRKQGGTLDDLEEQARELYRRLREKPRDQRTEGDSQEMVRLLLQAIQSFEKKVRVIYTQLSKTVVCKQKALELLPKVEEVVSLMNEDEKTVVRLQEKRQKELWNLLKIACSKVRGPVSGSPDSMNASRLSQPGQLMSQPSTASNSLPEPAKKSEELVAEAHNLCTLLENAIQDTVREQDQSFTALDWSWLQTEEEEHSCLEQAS", "assay_type": "functional"}}, "note": "The source made the active and inactive calls."}
{"smiles": "C[C@@H]1CC=C[C@H]2[C@H]1C(=O)N(Cc1ccccc1)[C@H]2c1cccc([N+](=O)[O-])c1", "values": [{"measurement": "AC50", "setting": "[1]", "value": "58.9 µM (active)"}, {"measurement": "EC50", "setting": "[2]", "value": "22.7 µM (active)"}]}
{"smiles": "O=C(NCC(c1cccs1)N1CCOCC1)c1cc([N+](=O)[O-])cc([N+](=O)[O-])c1", "note": "(stereo unspecified)", "values": [{"measurement": "EC50", "setting": "[3]", "value": "0.726 µM (active)"}, {"measurement": "CC50", "setting": "[4]", "value": "> 40 µM (active)"}, {"measurement": "EC50", "setting": "[5]", "value": "> 60 µM (not active)"}, {"measurement": "CC50", "setting": "[6]", "value": "> 40 µM (active)"}, {"measurement": "IC50", "setting": "cells", "value": "1.37 µM (active)"}, {"measurement": "CC50", "setting": "[7]", "value": "69 µM (active)"}, {"measurement": "CC50", "setting": "[8]", "value": "44.4 µM (active)"}, {"measurement": "CC50", "setting": "[9]", "value": "> 50 µM (active)"}]}
{"smiles": "Cc1ccc(S(=O)(=O)Nc2cccc3ccc(C)nc23)cc1", "values": [{"measurement": "IC50", "setting": "HEK293 [10]", "value": "> 80 µM (inactive)"}, {"measurement": "IC50", "setting": "Jurkat", "value": "1.79 µM (active)"}, {"measurement": "IC50", "setting": "HEK293 [11]", "value": "> 79 µM (inactive)"}]}
{"smiles": "O=C(NC(Cc1c[nH]c2ccccc12)C(=O)N/N=C/c1ccc(Br)cc1)c1cccs1", "note": "(stereo unspecified)", "values": [{"measurement": "IC50", "setting": "CHO-K1", "value": "> 66.2 µM (inactive)"}, {"measurement": "IC50", "setting": "[12]", "value": "> 49.8 µM (inactive)"}, {"measurement": "IC50", "setting": "[13]", "value": "2.99 µM (active)"}, {"measurement": "IC50", "setting": "[14]", "value": "7.4 µM (active)"}, {"measurement": "IC50", "setting": "Orexin receptor type 2 [15]", "value": "14.3 µM (inactive)"}, {"measurement": "IC50", "setting": "Orexin receptor type 2 [16]", "value": "11.1 µM (inactive)"}]}
{"smiles": "NCCn1cc(-c2cc(-c3cc4ccccc4s3)c3[nH]ncc3c2)c2nc(N)ncc21", "values": [{"measurement": "Ki", "setting": "[17]", "value": "3.16 µM (active)"}, {"measurement": "Ki", "setting": "[18]", "value": "0.398 µM (active)"}, {"measurement": "Ki", "setting": "[19]", "value": "> 6.31 µM (inactive)"}, {"measurement": "Ki", "setting": "[20]", "value": "> 7.94 µM (inactive)"}, {"measurement": "Ki", "setting": "[21]", "value": "0.0501 µM (active)"}, {"measurement": "Ki", "setting": "[22]", "value": "3.16 µM (active)"}, {"measurement": "Ki", "setting": "[23]", "value": "0.251 µM (active)"}]}
